Entries after “also recorded” stand apart in the source; their conditions may differ.
Tests used:
[1] = target: CB2 (Homo sapiens, UniProt P34972); conditions: cited from earlier work
[2] = system: human HL-60 promyelecytic leukemia cells; experiment: Apoptosis of HL-60 cells, Hoechst 33258 stain; assay type: cell-based; conditions: for % apoptosis / programmed cell death (apoptosis): HL-60; for % apoptosis: 24 h; for programmed cell death (apoptosis): dose dependent 0.1 μg/ml to 8 μg/ml
From the text: The method used, namely determination by the fluorescent Hoechst 33258 stain, is described by T. R. Chen (Cell Res. 104, 255-262, 1977). A Table of results is appended in following Table D.

[3] = system: tetradecanoylphorbolacetable (TPA) induced erythema of mouse ear; conditions: application of a 100 μg/ml solution; Formukong et al. 1988; cited from earlier work
[4] = system: uptake of endocannabinoids into neuronal cells; experiment: Uptake of endocannabinoids into neuronal cells; assay type: cell-based; conditions: preliminary data
[5] = system: phenylbenzoquinone writhing; conditions: Formukong et al. 1988; cited from earlier work
[6] = system: formalin-induced paw licking; experiment: Formalin test for peripheral pain; assay type: in vivo, mouse; conditions: mice; 20 mg/kg; 5 min recorded 30 min after formalin (3.2%)
Method: Thus mice injected with formalin (3.2% dissolved in saline) licked their paws 8±2 times over 5 min, recorded 30 min after the formalin administration.
(§1) Female Sabra mice (2 months old, Harlan-Sprague Dawley, Jerusalem) were used for a series of tests and for the assays for inflammation and peripheral pain. Groups of 5 mice were used in each experiment. Compounds 2a, 2b, 3a and 3b were dissolved in vehicle (ethanol:emulphor:saline=1:1:18) and injected intraperitoneally (i.p.) in volumes of 0.1 ml/10 g in mice as previously described (Hanus et al., 1999).
Pain mediated by the peripheral nervous system, was tested in the ‘formalin test’ for cutaneous (peripheral) pain (Tjolson et al., 1992; Calignano et al., 1998; Jaggar et al, 1998). The compound tested (or vehicle) was injected i.p. Formalin (3.2% dissolved in saline) was injected s.c. in the plantar surface of the hind paw of a mouse (in 20 μl volumes) 90 min after the drug. Immediately after formalin administration nociception was assessed (every 5 min for 1 hr) by the number of times the animal licks for formalin-injected paw.

[7] = system: serum TNFα; experiment: Serum TNFα in mice after ip injection of LPS; assay type: in vivo
Method: This anti TNFα effect is also seen in vivo. High levels of TNFα appear in serum of mice after ip injection of 5 mg/kg/mouse lipopolysaccharide (LPS). […] At the lower dose of 0.5 mg/kg 80% suppression of TNFα level was observed. […] Thus 7-hydroxy-CBD (2a) in doses of 10 μg/kg i.p. suppressed serum TNFα in mice (30%).

[8] = system: arachidonic acid-induced swelling of the ear; experiment: Arachidonic acid-induced ear inflammation in the mouse; assay type: in vivo
Method: Mice (female Sabra) were treated with […] A′ A (in 5 μl EtOH) dispersed on the inner surface of one of the ears. The other ear was treated with 5 μl of EtOH. Ear swelling was assessed by measuring ear thickness with a dial thickness gauge (Mitutoyo, Japan) just before treatment and 30 min after A; A application. The drugs (40 mg/kg for the cannabinoids and 20 mg/kg for indomethacin) were injected i.p. 60 min before the A′ A treatment. *** indicates p<0.001.
The effect of various doses of CBD-7-oic acid (3a) (Example 28), and of CBD-DMH-7-oic acid (3b) (Example 28) and of indomethacin (20 mg/kg) after arachidonic acid-induced swelling of the ear are shown in FIG. 2. The effects were measured over 75 min after the administration of arachidonic acid.
as §1
Ear inflammation was measured by assessing ear tissue swelling after topical application of arachidonic acid. […] The opposite ear served as control (5 μl ethanol). Ear thickness was determined (in 0.01 mm units) every 15 min for 90 min starting immediately after arachidonic acid application using a dial thickness gauge (Mitutoyo, Japan).

[9] = Antianxiety and anticonvulsive effects (preliminary data)
[10] = system: release of reactive oxygen intermediates by monocytic RAW 264.7 cells; experiment: Zymosan-induced release of reactive oxygen intermediates, chemiluminescence; assay type: cell-based
From the text: Table of results are attached in following Table C.
(§2) The experimental methods used have been described in Gallily et al. (Eur. J. Pharmacol. 406, R5-R7, 2000), Avron and Gallily (J. Leukocyte Biol. 57, 264-268, 1995) and Gallily et al. (J. Pharmacol. Exp. Ther. 283, 918-924, 1997).

[11] = system: TNFα production by RAW 264.7 mouse monocytic cell line; experiment: TNFα production by RAW 264.7 mouse monocytic cell line; assay type: cell-based; set-up: TNFα Titer S50: unit not given beside the values
Method: (§3) The inhibition is dose dependent (10 μg-0.001 μg/ml). Tables of results are attached in following Tables A and B.
as §2

[12] = system: TNFα production by Thioglycollate-elicited macrophages (TGMMΦ); experiment: TNFα production by thioglycollate-elicited macrophages; assay type: cell-based, murine; conditions: TGMΦ; for % inhibition of TNFα titer: 24 hrs
Method: as §3, §2

[13] = target: T1, CB1 (Rattus norvegicus, UniProt P20272); conditions: previously described probe; cited from earlier work
T1 construct: synaptosomal membranes prepared from rat brains; from tissue; host or cells: rat brain synaptosomal membranes

[14] = cannabinoid 40 mg/kg i.p., compared with indomethacin 20 mg/kg i.p.
[15] = cannabinoid 5 mg/kg, compared with indomethacin 20 mg/kg
[16] = cannabinoid 80 mg/kg, compared with indomethacin 20 mg/kg

T1 sequence (P20272 whole entry): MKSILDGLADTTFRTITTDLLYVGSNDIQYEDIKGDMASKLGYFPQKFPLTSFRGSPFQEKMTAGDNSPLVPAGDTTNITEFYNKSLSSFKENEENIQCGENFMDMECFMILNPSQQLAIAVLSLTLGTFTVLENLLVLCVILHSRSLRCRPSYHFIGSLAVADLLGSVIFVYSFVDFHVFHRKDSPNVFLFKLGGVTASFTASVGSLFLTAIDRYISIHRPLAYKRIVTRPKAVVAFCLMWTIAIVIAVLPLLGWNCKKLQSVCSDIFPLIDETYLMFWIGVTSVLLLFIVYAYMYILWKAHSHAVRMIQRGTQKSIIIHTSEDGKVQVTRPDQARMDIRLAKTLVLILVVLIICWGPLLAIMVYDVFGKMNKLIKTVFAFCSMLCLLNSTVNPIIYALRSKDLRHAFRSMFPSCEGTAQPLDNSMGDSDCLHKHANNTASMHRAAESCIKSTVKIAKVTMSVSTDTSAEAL
Chain of CB2 (P34972 whole entry, species assumed): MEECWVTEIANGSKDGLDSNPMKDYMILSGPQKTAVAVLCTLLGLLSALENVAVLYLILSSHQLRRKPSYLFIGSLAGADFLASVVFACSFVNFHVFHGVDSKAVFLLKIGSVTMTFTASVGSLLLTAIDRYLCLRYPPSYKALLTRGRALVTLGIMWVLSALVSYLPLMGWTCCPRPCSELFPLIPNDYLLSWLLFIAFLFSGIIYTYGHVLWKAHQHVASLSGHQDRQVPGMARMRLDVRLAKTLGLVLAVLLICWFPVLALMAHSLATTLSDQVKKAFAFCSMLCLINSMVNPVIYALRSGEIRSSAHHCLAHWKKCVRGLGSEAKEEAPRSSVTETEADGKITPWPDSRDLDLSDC

## C=C(C)[C@@H]1CCC(C)=C[C@H]1c1c(O)cc(CCCCC)cc1O [CBD, Cannabidiol]
[1]
  binding to cannabinoid receptor CB2: does not bind
[2]; 1 μg/ml, no irradiation
  % apoptosis: 19%
[2]; 1 μg/ml, γ-irradiation 800 rad
  % apoptosis: 28%
[2]; 4 μg/ml, no irradiation
  % apoptosis: 33%
[2]; 4 μg/ml, γ-irradiation 800 rad
  % apoptosis: 45%
[2]; 8 μg/ml, no irradiation
  % apoptosis: 48%
[2]; 8 μg/ml, γ-irradiation 800 rad
  % apoptosis: 85%
[2]
  programmed cell death (apoptosis): high rate of programmed cell death
[2]; HL-60 irradiated by γ ray (800 rad) and treated with cannabinoid
  apoptosis, synergism with γ ray irradiation: up to 85%
[3]
  inhibition of the inflammation response: 92%
[4]
  uptake of endocannabinoids into neuronal cells: prevent the uptake of endocannabinoids into neuronal cells
[5]
  analgesic potency compared with aspirin: much more potent than aspirin

## C=C(C)[C@@H]1CCC(C)=C[C@H]1c1c(O)cc(C(C)(C)CCCCCC)cc1O [Compound 1b, CBD-DMH, reference compound]
[4]
  uptake of endocannabinoids into neuronal cells: prevent the uptake of endocannabinoids into neuronal cells

## C=C(C)[C@@H]1CCC(CO)=C[C@H]1c1c(O)cc(CCCCC)cc1O [Compound 2a, 7-Hydroxy CBD]
[6]
  paw licking, late phase of formalin-induced pain behavior: fully blocked the licking
[7]; 10 μg/kg i.p.
  suppression of serum TNFα: 30%
[8]; [14]
  antiinflammatory effect on arachidonic acid-induced ear swelling: less active than the potent antiinflammatory drug indomethacin
[9]
  antianxiety and anticonvulsive effects: have antianxiety and anticonvulsive effects
[4]
  uptake of endocannabinoids into neuronal cells: prevent the uptake of endocannabinoids into neuronal cells

## C=C(C)[C@@H]1CCC(CO)=C[C@H]1c1c(O)cc(C(C)(C)CCCCCC)cc1O [Compound 2b, 7-Hydroxy CBD-DMH]
[6]
  paw licking, late phase of formalin-induced pain behavior: fully blocked the licking
[8]; [14]
  antiinflammatory effect on arachidonic acid-induced ear swelling: less active than the potent antiinflammatory drug indomethacin
[9]
  antianxiety and anticonvulsive effects: have antianxiety and anticonvulsive effects
[4]
  uptake of endocannabinoids into neuronal cells: prevent the uptake of endocannabinoids into neuronal cells

## C=C(C)[C@@H]1CCC(C(=O)O)=C[C@H]1c1c(O)cc(CCCCC)cc1O [Compound 3a, 7-Nor-carboxy CBD]
[6]
  paw licking, late phase of formalin-induced pain behavior: fully blocked the licking
[10]; Zymosan + 4 μg/ml
  Cherniluminescense peak: 4139
  Inhibition % of ROI release: 31%
[10]; Zymosan + 10 μg/ml
  Cherniluminescense peak: 1041
  Inhibition % of ROI release: 83%
[8]; [15]
  antiinflammatory effect on arachidonic acid-induced ear swelling: less active than 3b
[8]; [14]
  antiinflammatory effect on arachidonic acid-induced ear swelling: essentially equivalent to that of indomethacin
[8]; [16]
  antiinflammatory effect on arachidonic acid-induced ear swelling: less effective than indomethacin
[9]
  antianxiety and anticonvulsive effects: have antianxiety and anticonvulsive effects

## C=C(C)[C@@H]1CCC(C(=O)O)=C[C@H]1c1c(O)cc(C(C)(C)CCCCCC)cc1O [Compound 3b, 7-Nor-carboxy CBD DMH]
[6]
  paw licking, late phase of formalin-induced pain behavior: fully blocked the licking
[7]; 0.5 mg/kg simultaneously with LPS
  suppression of TNFα level in serum: 80%
[7]; 0.5 and 5 mg/kg simultaneously with LPS 5 mg/kg ip
  suppression of serum TNFα level: suppressed serum TNFα level
[10]; Zymosan + 4 μg/ml
  Cherniluminescense peak: 1524
  Inhibition % of ROI release: 83%
[10]; Zymosan + 10 μg/ml
  Cherniluminescense peak: 432
  Inhibition % of ROI release: 95%
[2]; 5 μg/ml, no irradiation
  % apoptosis: 15%
[2]; 5 μg/ml, γ-irradiation 800 rad
  % apoptosis: 25%
[2]; 10 μg/ml, no irradiation
  % apoptosis: 27%
[2]; 10 μg/ml, γ-irradiation 800 rad
  % apoptosis: 58%
[2]
  programmed cell death (apoptosis): high rate of programmed cell death
[11]; LPS + 0.01 μg/ml
  % inhibition of TNFα titer: 11%
  TNFα Titer S50: 5818
[11]; LPS + 0.1 μg/ml
  % inhibition of TNFα titer: 45%
  TNFα Titer S50: 357.6
[11]; LPS + 1 μg/ml
  % inhibition of TNFα titer: 63%
  TNFα Titer S50: 2384
[11]; LPS + 4 μg/ml
  % inhibition of TNFα titer: 65%
  TNFα Titer S50: 2300
[11]; LPS + 10 μg/ml
  % inhibition of TNFα titer: 91%
  TNFα Titer S50: 615
[8]; [15]
  antiinflammatory effect on arachidonic acid-induced ear swelling: fully suppressed the inflammation; also recorded: as potent as indomethacin
[8]; [14]
  antiinflammatory effect on arachidonic acid-induced ear swelling: essentially equivalent to that of indomethacin
[8]; [16]
  antiinflammatory effect on arachidonic acid-induced ear swelling: less effective than indomethacin
[9]
  antianxiety and anticonvulsive effects: have antianxiety and anticonvulsive effects
[12]; LPS + 0.01 μg/ml
  TNFα Titer (S50) After 24 hrs.: 535
  % inhibition of TNFα titer: 36%
[12]; LPS + 1 μg/ml
  TNFα Titer (S50) After 24 hrs.: 501
  % inhibition of TNFα titer: 40%
[12]; LPS + 5 μg/ml
  TNFα Titer (S50) After 24 hrs.: 406
  % inhibition of TNFα titer: 51%
[12]; LPS + 10 μg/ml
  TNFα Titer (S50) After 24 hrs.: 159
  % inhibition of TNFα titer: 81%

## CCCCCCC(C)(C)c1cc(O)c2c(c1)OC(C)(C)[C@@H]1CC[C@@H](CO)C[C@@H]21 [[^3H]HU-243]
[13]
  Ki: 0.045 ± 0.007 nM

From US7759526B2 (priority 2000, dated 2010)
